Measurements from article PMC12703428, “Development of Granzyme A Turn‐ON Fluorescent Activity‐Based Probes” (Chembiochem, 2025).

Molecular target: T1, pro‐form of GzmA (without signal peptide) (Homo sapiens, UniProt P12544)
T1 construct: purchased R&D Systems 2905-SE-010
T1 sequence (P12544 29-262): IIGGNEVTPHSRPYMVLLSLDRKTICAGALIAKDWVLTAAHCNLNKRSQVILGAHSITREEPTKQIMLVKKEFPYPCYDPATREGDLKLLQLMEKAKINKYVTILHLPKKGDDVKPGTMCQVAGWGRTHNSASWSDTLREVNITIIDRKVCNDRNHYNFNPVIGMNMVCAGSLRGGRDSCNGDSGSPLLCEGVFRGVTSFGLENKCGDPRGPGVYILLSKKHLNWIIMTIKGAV
Assay: In-gel fluorescence labeling of pro-form of hGzmA
Format: biochemical
Conditions: probe 50 nM, 2 h, 37 °C
Description: Figure 3 GzmA ABPs covalently and competitively label active human and mouse GzmA. […] Recombinant hGzmA (100 nM) was incubated with varying concentrations of each ABP at 37 °C. […] Recombinant hGzmA (100 nM) was preincubated with covalent inhibitors 1 or 2 (5 μM) for 2 h, followed by labeling with ABPs 3 -5 (50 nM) for 2 h at 37 °C. Note: […] C) Structure of qABP 6. D) Quenched natures of 5 and 6. […] F) Labeling of mGzmA (1 μM) with 5 and 6 (1 μM, 24 h, 37 °C). […] Recorded fluorescence at Ex/Em: 380/460 nm for residual GzmA proteolytic activity. […] B. Cell culture and preparation of cell lysates All cell lines were cultured at 37 °C under 5% CO2 in a humidified atmosphere. […] The supernatant was collected, and protein concentration was measured using a Pierce BCA protein assay. […] In-gel fluorescence imaging […] […] In-gel fluorescence and SYPRO-Ruby staining images were acquired on a Typhoon FLA9500 instrument, while western blot images were acquired on an […] […] Conditions for probe/inhibitor treatment for in-gel fluorescence analysis: Inhibitors and probes were incubated with active (or pro-) GzmA followed by treatment with 4X SDS reducing sample buffer. […] 20 μL of each sample was loaded onto a 15% polyacrylamide gel, which was then subjected to electrophoresis followed by the acquisition of in-gel fluorescence images. […]

IGNR [compound 5]
Labeling of pro-form of GzmA: No labeling
